Measurements as given in ChEMBL document CHEMBL5113482, “Discovery of fused benzimidazole-imidazole autophagic flux inhibitors for treatment of triple-negative breast cancer” (Eur J Med Chem, 2022).
Calls of active or inactive are those of the source. The calls are words filed in the database; no cut-off is given here.

Tests used:
MDA-MB-468 [1] = assay: Inhibition of autophagic flux in human MDA-MB-468 cells assessed as increase in cytoplasmic p62 expression measured after 48 hrs by Western blot analysis; type: functional, cell-based; settings: dose 5-20 µM, DDE = dose-dependent effect
MDA-MB-231 [2] = assay: Antitumor activity against human MDA-MB-231 cells xenografted in ip dosed NOD/SCID mouse assessed as upregulation of PARP expression administered at 3 days interval for 24 days and measured on day 25 by Western blot analysis; type: functional, organism-based; settings: dose 5-15 mg/kg, time 25.0 day, DDE = dose-dependent effect
MDA-MB-468 [3] = assay: Cell cycle arrest in human MDA-MB-468 cells assessed as reduction in CDK1 expression measured after 48 hrs by Western blot analysis; type: functional, cell-based; settings: dose 5-20 µM, DDE = dose-dependent effect
MDA-MB-468 [4] = assay: Inhibition of autophagic flux in human MDA-MB-468 cells assessed as increase in nuclear p62 expression measured after 48 hrs by Western blot analysis; type: functional, cell-based; settings: dose 5-20 µM, DDE = dose-dependent effect
HeLa = assay: Inhibition of autophagic flux in human HeLa cells expressing mRFP-EGFP-LC3B assessed as blockage of autophagosome-lysosome fusion by measuring accumulation of yellow fluorescent vesicles; type: functional, cell-based
MDA-MB-231 [5] = assay: Cell cycle arrest in human MDA-MB-231 cells assessed as increase in accumulation at S-phase at 5 to 20 uM measured after 48 hrs by propidium iodide staining based flow cytometry; type: functional; settings: dose 5-20 µM
MDA-MB-231 [6] = assay: Induction of apoptosis in human MDA-MB-231 cells assessed as increase in cleaved caspase-3 expression measured after 48 hrs by Western blot analysis; type: functional, cell-based; settings: dose 5-20 µM, DDE = dose-dependent effect
MDA-MB-231 [7] = assay: Cell cycle arrest in human MDA-MB-231 cells assessed as increase in CHK2 phosphorylation at Thr 68 residue measured after 48 hrs by Western blot analysis; type: functional, cell-based; settings: dose 5-20 µM, DDE = dose-dependent effect
MDA-MB-468 [8] = assay: Inhibition of autophagic flux in human MDA-MB-468 cells assessed as reduction in RNF8 expression at 5 to 20 uM measured after 6 to 48 hrs by Western blot analysis; type: functional, cell-based; settings: dose 5-20 µM, time 6-48 hrs
MDA-MB-468 [9] = assay: Induction of apoptosis in human MDA-MB-468 cells assessed as increase in cleaved caspase-3 expression measured after 48 hrs by Western blot analysis; type: functional, cell-based; settings: dose 5-20 µM, DDE = dose-dependent effect
MDA-MB-231 [10] = assay: Induction of apoptosis in human MDA-MB-231 cells assessed as reduction in Bcl-2 expression measured after 48 hrs by Western blot analysis; type: functional, cell-based; settings: dose 5-20 µM, DDE = dose-dependent effect
MDA-MB-468 [11] = assay: Inhibition of autophagy in human MDA-MB-468 cells assessed as increase in p62 expression at 5 to 20 uM measured after 48 hrs by Western blot analysis; type: functional, cell-based; settings: dose 5-20 µM, DDE = dose-dependent effect
MDA-MB-231 [12] = assay: Antiproliferative activity against human MDA-MB-231 cells assessed as reduction in Ki67 expression measured after 48 hrs by immunofluorescence analysis; type: functional, cell-based
Nibrin (Homo sapiens) = molecular target: T1, Nibrin (Homo sapiens) (UniProt O60934); assay: Activation of NBS1 phosphorylation in human MDA-MB-231 cells at 5 to 20 uM measured after 6 to 48 hrs by Western blot analysis; type: cell-based; settings: filed as activator, dose 5-20 µM, time 6-48 hrs
T1 sequence (whole entry): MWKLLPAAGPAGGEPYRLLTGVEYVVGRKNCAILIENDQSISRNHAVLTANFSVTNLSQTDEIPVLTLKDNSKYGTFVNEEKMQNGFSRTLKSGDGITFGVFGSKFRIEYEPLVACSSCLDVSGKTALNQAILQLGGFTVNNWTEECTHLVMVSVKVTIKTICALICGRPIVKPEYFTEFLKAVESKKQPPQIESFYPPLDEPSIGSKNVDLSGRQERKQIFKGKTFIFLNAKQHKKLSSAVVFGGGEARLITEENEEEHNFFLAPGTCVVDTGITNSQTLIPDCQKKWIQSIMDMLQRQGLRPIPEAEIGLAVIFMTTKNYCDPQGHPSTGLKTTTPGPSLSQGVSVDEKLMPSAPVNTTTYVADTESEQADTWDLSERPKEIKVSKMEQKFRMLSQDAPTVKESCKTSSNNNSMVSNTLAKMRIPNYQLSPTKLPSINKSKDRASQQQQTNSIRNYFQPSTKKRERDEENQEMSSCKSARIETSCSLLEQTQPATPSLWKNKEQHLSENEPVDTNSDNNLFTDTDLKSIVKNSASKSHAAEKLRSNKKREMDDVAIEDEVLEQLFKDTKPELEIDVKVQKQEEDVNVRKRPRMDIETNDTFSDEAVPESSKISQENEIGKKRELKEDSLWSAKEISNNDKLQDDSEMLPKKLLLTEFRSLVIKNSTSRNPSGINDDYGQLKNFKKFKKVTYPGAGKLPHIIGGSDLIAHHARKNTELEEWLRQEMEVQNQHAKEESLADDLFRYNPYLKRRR

MDA-MB-231 [13] = assay: Induction of apoptosis in human MDA-MB-231 cells assessed as increase in Bim expression measured after 48 hrs by Western blot analysis; type: functional, cell-based; settings: dose 5-20 µM, DDE = dose-dependent effect
MDA-MB-468 [14] = assay: Induction of apoptosis in human MDA-MB-468 cells assessed as increase in cleaved caspase-9 expression measured after 48 hrs by Western blot analysis; type: functional, cell-based; settings: dose 5-20 µM, DDE = dose-dependent effect
MDA-MB-231 [15] = assay: Cell cycle arrest in human MDA-MB-231 cells assessed as reduction in cyclin B expression measured after 48 hrs by Western blot analysis; type: functional, cell-based; settings: dose 5-20 µM, DDE = dose-dependent effect
MDA-MB-231 [16] = assay: Inhibition of autophagy in human MDA-MB-231 cells assessed as increase in p62 expression at 5 to 20 uM measured after 48 hrs by Western blot analysis; type: functional, cell-based; settings: dose 5-20 µM, DDE = dose-dependent effect
MDA-MB-231 [17] = assay: Antitumor activity against human MDA-MB-231 cells xenografted in NOD/SCID mouse assessed as reduction in cell count at 5 to 15 mg/kg, ip administered at 3 days interval for 24 days and measured on day 25 by H and E staining based assay; type: functional, organism-based; settings: dose 5-15 mg/kg, time 25.0 day
MDA-MB-231 [18] = assay: Antitumor activity against human MDA-MB-231 cells xenografted in NOD/SCID mouse assessed as reduction in tumor size at 5 to 15 mg/kg, ip administered at 3 days interval for 24 days and measured on day 25; type: functional, organism-based; settings: dose 5-15 mg/kg, time 25.0 day
U-251 = assay: Antiproliferative activity against human U-251 cells assessed as cell growth inhibition measured after 48 hrs by MTT assay; type: functional, cell-based; settings: U-251, 48 h
[19] = molecular target: Serine-protein kinase ATM (Homo sapiens) (UniProt Q13315); assay: Activation of ATM phosphorylation in human MDA-MB-468 cells at 5 to 20 uM measured after 6 to 48 hrs by Western blot analysis; type: cell-based; settings: filed as activator, dose 5-20 µM, time 6-48 hrs
Chain of Serine-protein kinase ATM (Homo sapiens) (Q13315 whole entry): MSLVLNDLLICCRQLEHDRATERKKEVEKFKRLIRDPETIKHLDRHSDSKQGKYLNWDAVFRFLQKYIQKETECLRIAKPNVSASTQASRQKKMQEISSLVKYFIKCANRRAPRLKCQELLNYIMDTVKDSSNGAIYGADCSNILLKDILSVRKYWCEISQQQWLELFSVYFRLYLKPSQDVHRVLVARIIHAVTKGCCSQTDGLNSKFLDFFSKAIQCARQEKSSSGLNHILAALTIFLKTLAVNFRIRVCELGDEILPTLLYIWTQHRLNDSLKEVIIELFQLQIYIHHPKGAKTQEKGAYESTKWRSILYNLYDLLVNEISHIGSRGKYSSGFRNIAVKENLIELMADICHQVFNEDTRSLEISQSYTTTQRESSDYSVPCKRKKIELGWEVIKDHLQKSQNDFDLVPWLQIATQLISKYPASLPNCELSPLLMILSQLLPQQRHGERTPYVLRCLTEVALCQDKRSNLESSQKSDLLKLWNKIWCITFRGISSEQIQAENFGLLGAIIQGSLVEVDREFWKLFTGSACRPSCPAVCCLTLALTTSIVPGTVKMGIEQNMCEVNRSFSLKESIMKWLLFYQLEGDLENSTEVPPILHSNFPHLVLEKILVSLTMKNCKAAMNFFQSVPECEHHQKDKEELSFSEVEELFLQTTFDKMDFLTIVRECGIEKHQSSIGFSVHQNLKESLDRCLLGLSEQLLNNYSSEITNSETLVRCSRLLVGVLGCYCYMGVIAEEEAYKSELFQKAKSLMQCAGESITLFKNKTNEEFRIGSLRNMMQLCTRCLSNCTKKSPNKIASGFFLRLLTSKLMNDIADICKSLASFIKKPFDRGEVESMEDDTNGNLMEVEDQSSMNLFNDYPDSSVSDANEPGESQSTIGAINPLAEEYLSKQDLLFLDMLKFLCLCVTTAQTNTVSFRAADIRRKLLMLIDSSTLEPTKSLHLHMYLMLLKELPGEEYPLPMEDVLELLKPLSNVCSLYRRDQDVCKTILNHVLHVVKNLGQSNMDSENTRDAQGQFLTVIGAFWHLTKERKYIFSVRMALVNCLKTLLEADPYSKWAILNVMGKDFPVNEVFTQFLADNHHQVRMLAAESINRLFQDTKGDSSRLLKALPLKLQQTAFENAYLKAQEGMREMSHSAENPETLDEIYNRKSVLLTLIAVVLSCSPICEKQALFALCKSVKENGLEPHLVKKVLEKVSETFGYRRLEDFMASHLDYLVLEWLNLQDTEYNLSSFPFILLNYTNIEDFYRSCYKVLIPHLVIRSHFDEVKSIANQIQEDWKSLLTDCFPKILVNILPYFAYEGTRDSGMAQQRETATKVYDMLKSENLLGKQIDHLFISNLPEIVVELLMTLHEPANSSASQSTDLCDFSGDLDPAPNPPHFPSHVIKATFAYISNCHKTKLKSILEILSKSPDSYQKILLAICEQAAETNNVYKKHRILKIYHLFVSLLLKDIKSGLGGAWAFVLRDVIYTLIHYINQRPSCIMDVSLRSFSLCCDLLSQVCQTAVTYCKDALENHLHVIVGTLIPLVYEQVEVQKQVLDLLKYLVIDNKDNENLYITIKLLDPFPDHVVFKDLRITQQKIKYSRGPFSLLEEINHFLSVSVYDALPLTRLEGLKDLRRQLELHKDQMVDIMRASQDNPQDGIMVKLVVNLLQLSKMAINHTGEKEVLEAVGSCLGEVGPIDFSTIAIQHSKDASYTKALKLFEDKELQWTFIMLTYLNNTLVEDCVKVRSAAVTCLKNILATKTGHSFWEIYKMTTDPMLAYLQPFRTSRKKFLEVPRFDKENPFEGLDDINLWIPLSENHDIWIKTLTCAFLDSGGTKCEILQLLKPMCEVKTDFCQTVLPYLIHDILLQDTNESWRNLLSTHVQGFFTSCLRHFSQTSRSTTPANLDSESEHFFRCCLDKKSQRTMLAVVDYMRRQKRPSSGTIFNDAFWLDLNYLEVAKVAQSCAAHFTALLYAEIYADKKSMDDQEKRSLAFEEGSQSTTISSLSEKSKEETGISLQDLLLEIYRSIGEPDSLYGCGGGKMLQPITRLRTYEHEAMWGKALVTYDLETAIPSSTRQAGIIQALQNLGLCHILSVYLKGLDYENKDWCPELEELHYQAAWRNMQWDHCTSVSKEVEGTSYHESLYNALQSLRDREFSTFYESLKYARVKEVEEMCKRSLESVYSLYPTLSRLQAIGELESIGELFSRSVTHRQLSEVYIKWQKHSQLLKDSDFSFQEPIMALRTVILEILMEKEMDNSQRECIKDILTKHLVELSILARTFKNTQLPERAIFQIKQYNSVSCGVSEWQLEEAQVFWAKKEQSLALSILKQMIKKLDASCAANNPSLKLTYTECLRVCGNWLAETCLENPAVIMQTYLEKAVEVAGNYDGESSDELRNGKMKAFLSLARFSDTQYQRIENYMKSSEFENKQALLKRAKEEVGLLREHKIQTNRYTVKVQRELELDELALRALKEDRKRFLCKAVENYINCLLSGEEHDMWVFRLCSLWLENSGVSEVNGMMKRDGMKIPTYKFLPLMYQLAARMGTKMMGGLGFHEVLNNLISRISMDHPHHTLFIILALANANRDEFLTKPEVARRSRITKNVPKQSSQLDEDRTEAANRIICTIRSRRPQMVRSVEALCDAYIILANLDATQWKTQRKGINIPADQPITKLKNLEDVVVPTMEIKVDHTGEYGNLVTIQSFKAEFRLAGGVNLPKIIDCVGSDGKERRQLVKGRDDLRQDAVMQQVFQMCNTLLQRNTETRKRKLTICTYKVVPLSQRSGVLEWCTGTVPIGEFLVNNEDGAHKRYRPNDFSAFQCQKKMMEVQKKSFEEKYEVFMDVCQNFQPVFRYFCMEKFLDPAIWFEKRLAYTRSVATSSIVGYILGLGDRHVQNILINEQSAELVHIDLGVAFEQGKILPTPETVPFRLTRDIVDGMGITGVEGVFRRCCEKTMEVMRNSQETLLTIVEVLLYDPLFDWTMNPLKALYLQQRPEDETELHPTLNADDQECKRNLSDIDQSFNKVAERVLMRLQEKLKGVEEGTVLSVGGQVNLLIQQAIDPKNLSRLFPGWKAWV

SCC-25 = assay: Antiproliferative activity against human SCC-25 cells assessed as cell growth inhibition measured after 48 hrs by MTT assay; type: functional, cell-based; settings: SCC-25, 48 h
MDA-MB-231 [20] = assay: Induction of apoptosis in human MDA-MB-231 cells assessed as increase in late apoptotic cells measured after 48 hrs by Annexin V-FITC/propidium iodide staining based flow cytometry; type: functional, cell-based; settings: dose 5-20 µM, DDE = dose-dependent effect
MDA-MB-231 [21] = assay: Cell cycle arrest in human MDA-MB-231 cells assessed as reduction in CDK2 expression measured after 48 hrs by Western blot analysis; type: functional, cell-based; settings: dose 5-20 µM, DDE = dose-dependent effect
MDA-MB-468 [22] = assay: Induction of DNA damage in human MDA-MB-468 cells assessed as reduction in BRCA2 expression measured after 6 to 48 hrs by Western blot analysis; type: functional, cell-based; settings: dose 5-20 µM, time 6-48 hrs, DDE = dose-dependent effect
MDA-MB-231 [23] = assay: Inhibition of autophagic flux in human MDA-MB-231 cells assessed as increase in cytoplasmic p62 expression measured after 48 hrs by Western blot analysis; type: functional, cell-based; settings: dose 5-20 µM, DDE = dose-dependent effect

O=C(NC1CCCCC1)c1[nH]cnc1-c1nc2ccccc2[nH]1
inhibition (MDA-MB-468 [1]): Dde | Activity (MDA-MB-231 [2]): Dde | Activity (MDA-MB-468 [3]): Dde | inhibition (MDA-MB-468 [4]): Dde | inhibition (HeLa): Active | Activity (MDA-MB-231 [5]): Active | Activity (MDA-MB-231 [6]): Dde | Activity (MDA-MB-231 [7]): Dde | inhibition (MDA-MB-468 [8]): Active | Activity (MDA-MB-468 [9]): Dde | Activity (MDA-MB-231 [10]): Dde | inhibition (MDA-MB-468 [11]): Dde | Activity (MDA-MB-231 [12]): Active | Activity (Nibrin (Homo sapiens)): Active | Activity (MDA-MB-231 [13]): Dde | Activity (MDA-MB-468 [14]): Dde | Activity (MDA-MB-231 [15]): Dde | inhibition (MDA-MB-231 [16]): Dde | Activity (MDA-MB-231 [17]): Active | Activity (MDA-MB-231 [18]): Active | IC50 (U-251): 12.9 µM | Activity [19]: Active | IC50 (SCC-25): 18.6 µM | Activity (MDA-MB-231 [20]): Dde | Activity (MDA-MB-231 [21]): Dde | Activity (MDA-MB-468 [22]): Dde | inhibition (MDA-MB-231 [23]): Dde
